# Results published in patent US11633459B2, “GIP derivatives and uses thereof” (priority 2018, dated 2023).
# *1 amine or outer side, *2 acyl side, *3 side chain or, on linkers, in order; H or OH if unused. Where a SMILES comes first, the peptide text is derived from it. Side-chain parts run from the residue outwards. [ ]: non-standard residue; d: D form. The star is where a group is joined. X1 = O=C(O)CCCCCCCCCCCCCCCCCCC(=O)NCC1CCC(C(=O)*)CC1; γGlu = O=C(O)[C@H](CCC(=O)[*:2])N[*:1]; Nle = CCCC[C@H](N)C(=O)O; Aib = CC(C)(N)C(=O)O
# Assay: Pharmacokinetic study in minipigs, terminal half-life after i.v. administration
# Details: female, Göttingen, minipig, plasma, iv, 5 nmol/kg
# Description: Pharmacokinetic Study in Minipigs
# The purpose of this study is to determine the half-life in vivo of the derivatives of the present invention after i.v. administration to minipigs, i.e. the prolongation of their time in the body and thereby their time of action. This is done in a pharmacokinetic (PK) study, where the terminal half-life of the derivative in question is determined. By terminal half-life is generally meant the period of time it takes to halve a certain plasma concentration, measured after the initial distribution phase.
# Female Göttingen minipigs were obtained from Ellegaard Göttingen Minipigs (Dalmose, Denmark) approximately 7-14 months of age and weighing from approximately 16-35 kg were used in the studies. The minipigs were housed individually and fed restrictedly once daily with SDS minipig diet (Special Diets Services, Essex, UK).
# After at 3 weeks of acclimatisation two permanent central venous catheters were implanted in vena cava caudalis in each animal. The animals were allowed 1 week recovery after the surgery, and were then used for repeated pharmacokinetic studies with a suitable wash-out period between successive derivative dosing.
# Blood samples (for example 0.8 ml) were collected in EDTA buffer (8 mM) and then centrifuged at 4° C. and 1942G for 10 minutes.
# Individual plasma concentration-time profiles were analysed by a non-compartmental model in Phoenix WinNonLin ver. […] (Pharsight Inc., Mountain View, Calif., USA), and the resulting terminal half-lives (harmonic mean) determined.
row,Compound,half-life [h]
1,"CCCC[C@H](NC(=O)[C@H](C)NC(=O)[C@@H](NC(=O)[C@H](CO)NC(=O)[C@H](Cc1ccc(O)cc1)NC(=O)[C@H](CC(=O)O)NC(=O)[C@H](CO)NC(=O)[C@@H](NC(=O)[C@H](Cc1ccccc1)NC(=O)[C@@H](NC(=O)CNC(=O)[C@H](CCC(=O)O)NC(=O)[C@H](C)NC(=O)[C@@H](Cc1ccc(O)cc1)NC(C)=O)[C@@H](C)O)[C@@H](C)CC)[C@@H](C)CC)C(=O)N[C@@H](CC(=O)O)C(=O)N[C@@H](CCCCN)C(=O)N[C@H](C(=O)N[C@@H](CCCNC(=N)N)C(=O)N[C@@H](CCC(N)=O)C(=O)N[C@@H](CCC(N)=O)C(=O)N[C@@H](CC(=O)O)C(=O)N[C@@H](Cc1ccccc1)C(=O)N[C@H](C(=O)N[C@@H](CCCCNC(=O)CC[C@H](NC(=O)CC[C@H](NC(=O)CC[C@H](NC(=O)C1CCC(CNC(=O)CCCCCCCCCCCCCCCCCCC(=O)O)CC1)C(=O)O)C(=O)O)C(=O)O)C(=O)N[C@@H](Cc1c[nH]c2ccccc12)C(=O)N[C@@H](CC(C)C)C(=O)N[C@@H](CC(C)C)C(=O)N[C@@H](C)C(=O)N[C@@H](CCC(N)=O)C(=O)N[C@@H](CCCCN)C(=O)NCC(=O)O)C(C)C)[C@@H](C)CC (stereo partly drawn) [Compound 8, N{1}-acetyl,N{Epsilon-24}-[(4S)-4-carboxy-4-[[(4S)-4-carboxy-4-[[(4S)-4-carboxy-4-[[4-[(19-carboxynonadecanoylamino)methyl]cyclohexanecarbonyl]amino]-butanoyl]amino]butanoyl]amino]butanoyl]-[D-Tyr1,Nle14,Arg18,Lys24]-hGIP(1-31)]",106
2,"CCCC[C@H](NC(=O)[C@H](C)NC(=O)[C@@H](NC(=O)[C@H](CO)NC(=O)[C@H](Cc1ccc(O)cc1)NC(=O)[C@H](CC(=O)O)NC(=O)[C@H](CO)NC(=O)[C@@H](NC(=O)[C@H](Cc1ccccc1)NC(=O)[C@@H](NC(=O)CNC(=O)[C@H](CCC(=O)O)NC(=O)[C@H](C)NC(=O)[C@@H](Cc1ccc(O)cc1)NC(C)=O)[C@@H](C)O)[C@@H](C)CC)[C@@H](C)CC)C(=O)N[C@@H](CC(=O)O)C(=O)N[C@@H](CCCCN)C(=O)N[C@H](C(=O)N[C@@H](CCCNC(=N)N)C(=O)N[C@@H](CCC(N)=O)C(=O)N[C@@H](CCC(N)=O)C(=O)N[C@@H](CC(=O)O)C(=O)N[C@@H](Cc1ccccc1)C(=O)N[C@H](C(=O)N[C@@H](CCCCNC(=O)CC[C@H](NC(=O)CC[C@H](NC(=O)CC[C@H](NC(=O)C1CCC(CNC(=O)CCCCCCCCCCCCCCCCCCC(=O)O)CC1)C(=O)O)C(=O)O)C(=O)O)C(=O)N[C@@H](Cc1c[nH]c2ccccc12)C(=O)N[C@@H](CC(C)C)C(=O)N[C@@H](CC(C)C)C(=O)N[C@@H](C)C(=O)N[C@@H](CCC(N)=O)C(=O)N[C@@H](CCCCN)C(=O)N1CCC[C@H]1C(N)=O)C(C)C)[C@@H](C)CC (stereo partly drawn) [Compound 28, N{1}-acetyl,N{Epsilon-24}-[(4S)-4-carboxy-4-[[(4S)-4-carboxy-4-[[(4S)-4-carboxy-4-[[4-[(19-carboxynonadecanoylamino)methyl]cyclohexanecarbonyl]amino]butanoyl]-amino]butanoyl]amino]butanoyl]-[D-Tyr1,Nle14,Arg18,Lys24,Pro31]-hGIP(1-31) amide] (Ac-[dY]AEGTFISDYSIA[Nle]DKIRQQDFVK([γGlu-γGlu-γGlu-X1])WLLAQKP-NH2)",104
3,"CCCC[C@H](NC(=O)[C@H](C)NC(=O)[C@@H](NC(=O)[C@H](CO)NC(=O)[C@H](Cc1ccc(O)cc1)NC(=O)[C@H](CC(=O)O)NC(=O)[C@H](CO)NC(=O)[C@@H](NC(=O)[C@H](Cc1ccccc1)NC(=O)[C@@H](NC(=O)CNC(=O)[C@H](CCC(=O)O)NC(=O)C(C)(C)NC(=O)[C@@H](Cc1ccc(O)cc1)NC(C)=O)[C@@H](C)O)[C@@H](C)CC)[C@@H](C)CC)C(=O)N[C@@H](CC(=O)O)C(=O)N[C@@H](CCCCN)C(=O)N[C@H](C(=O)N[C@@H](Cc1c[nH]cn1)C(=O)N[C@@H](CCC(N)=O)C(=O)N[C@@H](CCC(N)=O)C(=O)N[C@@H](CC(=O)O)C(=O)N[C@@H](Cc1ccccc1)C(=O)N[C@H](C(=O)N[C@@H](CCCCNC(=O)CC[C@H](NC(=O)CC[C@H](NC(=O)CC[C@H](NC(=O)C1CCC(CNC(=O)CCCCCCCCCCCCCCCCCCC(=O)O)CC1)C(=O)O)C(=O)O)C(=O)O)C(=O)N[C@@H](Cc1c[nH]c2ccccc12)C(=O)N[C@@H](CC(C)C)C(=O)N[C@@H](CC(C)C)C(=O)N[C@@H](C)C(=O)N[C@@H](CCC(N)=O)C(=O)N[C@@H](CCCCN)C(=O)N1CCC[C@H]1C(N)=O)C(C)C)[C@@H](C)CC (stereo partly drawn) [Compound 32, N{1}-acetyl,N{Epsilon-24}-[(4S)-4-carboxy-4-[[(4S)-4-carboxy-4-[[(4S)-4-carboxy-4-[[4-[(19-carboxynonadecanoylamino)methyl]cyclohexanecarbonyl]amino]butanoyl]-amino]butanoyl]amino]butanoyl]-[D-Tyr1,Aib2, Nle14,Lys24,Pro31]-hGIP(1-31) amide] (Ac-[dY][Aib]EGTFISDYSIA[Nle]DKIHQQDFVK([γGlu-γGlu-γGlu-X1])WLLAQKP-NH2)",121
4,"CCCC[C@H](NC(=O)[C@H](C)NC(=O)[C@@H](NC(=O)[C@H](CO)NC(=O)[C@H](Cc1ccc(O)cc1)NC(=O)[C@H](CC(=O)O)NC(=O)[C@H](CO)NC(=O)[C@@H](NC(=O)[C@H](Cc1ccccc1)NC(=O)[C@@H](NC(=O)CNC(=O)[C@H](CCC(=O)O)NC(=O)C(C)(C)NC(=O)[C@@H](N)Cc1ccc(O)cc1)[C@@H](C)O)[C@@H](C)CC)[C@@H](C)CC)C(=O)N[C@@H](CC(=O)O)C(=O)N[C@@H](CCCCN)C(=O)N[C@H](C(=O)N[C@@H](CCCNC(=N)N)C(=O)N[C@@H](CCC(N)=O)C(=O)N[C@@H](CCC(N)=O)C(=O)N[C@@H](CC(=O)O)C(=O)N[C@@H](Cc1ccccc1)C(=O)N[C@H](C(=O)N[C@@H](CCCCNC(=O)CC[C@H](NC(=O)CC[C@H](NC(=O)CC[C@H](NC(=O)C1CCC(CNC(=O)CCCCCCCCCCCCCCCCCCC(=O)O)CC1)C(=O)O)C(=O)O)C(=O)O)C(=O)N[C@@H](Cc1c[nH]c2ccccc12)C(=O)N[C@@H](CC(C)C)C(=O)N[C@@H](CC(C)C)C(=O)N[C@@H](C)C(=O)N[C@@H](CCC(N)=O)C(=O)N[C@@H](CCCCN)C(=O)N1CCC[C@H]1C(N)=O)C(C)C)[C@@H](C)CC (stereo partly drawn) [Compound 26, N{Epsilon-24}-[(4S)-4-carboxy-4-[[(4S)-4-carboxy-4-[[(4S)-4-carboxy-4-[[4-[(19-carboxynonadecanoylamino)methyl]cyclohexanecarbonyl]amino]butanoyl]amino]-butanoyl]amino]butanoyl]-[Aib2,Nle14,Arg18,Lys24,Pro31]-hGIP(1-31) amide]",109
